Reference: article PMC8861050, “Design, synthesis and evaluation of novel 2-oxoindoline-based acetohydrazides as antitumor agents” (Scientific Reports, 2022)

Assays:
[1] = test system: SW620, PC-3, and NCI-H23 cell lines; experiment: Cytotoxicity, summary statements over three human cancer cell lines; assay type: cell-based; settings: SW620, PC-3, NCI-H23
From the text: Three human cancer cell lines: colon cancer (SW620), prostate cancer (PC3), and lung cancer (NCI-H23) were used for sceening the cytotoxicity of the compounds. The cancer cells were purchased from American Type Culture Collection (Manassas, VA, USA). Other reagents/media for cell culture were obtained from GIBCO (Grand Island, New York, USA). The testing cancer cells were culture in Dulbecco’s Modified Eagle Medium until confluence. Then, they were trypsinized and suspended at the level of 3 × 10^4 cells/mL of cell culture medium. On day 0, cancer cells were seeded at a volume of 180 µL/well of 96-well plates and incubated for 24 h at 37 °C in a 5% CO2 incubator. On day 1, 20 µL of various concentrations of testing compounds were added to each well of the 96-well plates. Chemicals were dissolved in dimethyl sulfoxide (DMSO, stock) and diluted in culture medium (1% DMSO) before adding to the culture. After 48 h incubation, the sulforhodamine B assay was used for cell density determination with slight modifications[22]–[26]. The Probits were used for the calculation of IC50 values. The reported IC50 were the averages of three independent screening (SD ≤ 10%)[27].
Overally, 5-fluorinated compounds (4i–p and 5d–f) were slightly more cytotoxic than non-fluorinated ones (4a–h, 5a–c). […]

[2] = test system: U937 human lymphoma cells; experiment: Cell cycle analysis (PI, flow cytometry); assay type: cell-based; settings: 24 h
Protocol: U937 human lymphoma cells (5 × 10^5/mL per well) were plated in 6-well culture plates and allowed to grow for 24 h. In our first experiment, we examined the effects of 4f, 4h, 4n, 4o, 4p, and PAC-1 on cell cycles at 50 µM. In the second experiment, we examined the dose-dependent effect of 4o at 5, 10, and 30 µM and PAC-1 at 30 µM on cell cycles. The cells were treated with compounds for 24 h, and then harvested. The harvested cells were washed twice with ice-cold PBS, fixed in 75% ice-cold ethanol, and stained with propidium iodide (PI) in the presence of RNase at room temperature for 30 min. The stained cells were analyzed for DNA content using a FACScalibur flow cytometer (BD Biosciences, San Jose, CA, USA) and the data were processed using Cell Quest Pro software (BD Biosciences).
(§1) Figure 3 Cell cycle analysis after treatment with some compounds. U937 human lymphoma cells were treated with compounds (50 µM) for 24 h. The harvested cells were stained with propidium iodide (PI) in the presence of RNase and then were analyzed for DNA content by using flow cytometry. Ten thousand cells were acquired (n = 3). UN untreated, VH vehicle (DMSO. 0.1%). Representative histograms (A) and bar graphs (B) are shown. p values were calculated using one-way ANOVA in GraphPad Software (San Diego, CA, USA). *p < 0.01 vs VH control.
as §1, with “Figure 4” for “Figure 3”, “analysis under” for “analysis after”, “with different concentrations of compound 4o.” for “with some compounds.”, “with compound 4o at 5, 10 and 30 µM or PAC-1 (30” for “with compounds (50”

melting point: 186 to 187 °C
SMILES: COc1ccc(/C=N/NC(=O)CN2C(=O)Cc3cc(F)ccc32)c(O)c1 [Compound 4o, (E)-N'-(2-Hydroxy-4-methoxybenzylidene)-2-(5-fluoro-2-oxoindolin-1-yl)acetohydrazide]
IC50 values relative to PAC-1 [1]: three- to five-fold lower
Effect on cell cycle, dose dependence ([2]; 5 µM): inhibited cell cycles
Effect on cell cycle distribution ([2]; 50 µM): accumulated U937 cells in the S phase
